In one data set the target is T1, RET (Homo sapiens, UniProt P07949).
T1 construct: full-length human RET (long isoform) in pCR3.1; expressed in transfected cells; host or cells: MG87RET murine fibroblasts
Briefly: Luciferase reporter-gene assay (PathDetect Elk-1), RET reporter cells. To be noted: RET reporter cell line. Format: cell-based.

Another data set addresses T2, TrkB (Rattus norvegicus, UniProt Q63604).
T2 construct: expressed in transfected cells; host or cells: MG87 murine fibroblasts (MG87TrkB)
Briefly: TrkB phosphorylation assay in MG87TrkB cells. Format: cell-based. To be noted: BT13 10–100 μM, BDNF positive control. How it is done: MG87RET, MG87TrkA, or MG87TrkB were plated on 35 mm tissue culture dishes 1–2 days before the experiment to achieve 90–95% of confluency of the cells at the day of stimulation with tested substances. If necessary, cells were transfected with 4 μg/well of GFRα1-, GFRα3-, or green fluorescent protein (GFP)-expressing plasmid using Lipofectamine 2000 (Invitrogen) for DNA delivery as described by manufacturer. Before the experiment cells were starved in serum-free DMEM containing 15 mM HEPES, pH 7.2 and 1% DMSO for 4 h and stimulated with BT13 or neurotrophic factors. Then cells were washed once with ice-cold PBS containing 1 mM Na3VO4 and 1 mM NaF and lysed on ice in 1 ml per well of RIPA-modified buffer (50 mM Tris-HCl, pH 7.4, 150 mM NaCl, 1 mM EDTA, 1% NP-40, 1% TX-100, 10% glycerol, EDTA-free protease inhibitor cocktail (Roche), 1 mM Na3VO4, 2.5 mg/ml of sodium deoxycholate, 1 mM NaF). Plates were incubated at +4°C on the horizontal shaker for 30 min with vigorous shaking. Afterwards, 80–100 μl aliquot was taken from each well to prepare whole cell lysates. This aliquot was mixed with equal volume of 2x Laemmli loading buffer (4% SDS, 20% glycerol, 10% 2-mercaptoethanol, 0.004% bromphenol blue, 0.125 M Tris HCl, pH 6.8) and boiled for 10 min at 100°C. Remaining cell lysates were used for immunoprecipitation of RET or Trk receptors. […]

Data set [1] is described as follows: Plasma stability, rat plasma. Type of data set: in vitro ADME. To be noted: read-out: Plasma stability (% remaining after 1 h).
The nature of data set [2]: Metabolic stability in liver microsomes. Format: in vitro ADME. The settings on record: 0.5 mg/ml rat liver microsomes; read-out: Microsomal stability (% remaining in 30 min).
The target in the next data set is T3, CYP2C9 (Homo sapiens, UniProt P11712).
T3 construct: Cyathus Exquirere (contract laboratory)
T3 sequence (P11712 whole entry): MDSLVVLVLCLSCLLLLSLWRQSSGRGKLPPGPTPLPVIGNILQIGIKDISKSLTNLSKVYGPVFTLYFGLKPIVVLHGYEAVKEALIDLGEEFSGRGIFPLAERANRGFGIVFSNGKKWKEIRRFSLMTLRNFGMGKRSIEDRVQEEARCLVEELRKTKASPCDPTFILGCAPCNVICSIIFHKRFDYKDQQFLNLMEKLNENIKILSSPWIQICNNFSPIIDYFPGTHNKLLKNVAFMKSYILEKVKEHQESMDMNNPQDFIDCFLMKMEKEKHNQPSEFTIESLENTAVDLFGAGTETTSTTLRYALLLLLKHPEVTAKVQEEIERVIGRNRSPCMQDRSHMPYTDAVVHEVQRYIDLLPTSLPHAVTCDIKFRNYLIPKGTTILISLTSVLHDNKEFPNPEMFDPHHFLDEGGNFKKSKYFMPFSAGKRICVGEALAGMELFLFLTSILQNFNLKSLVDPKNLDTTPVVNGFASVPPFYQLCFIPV
Briefly: CYP inhibition, fluorescent assay. Type of data set: biochemical. The settings on record: read-out: Inhibition of CYP isoforms (IC50), CYP2C9.

Data set [3] relates to adrenergic receptor alpha 2. Briefly: CEREP Alpha 2 (non-selective; antagonist radioligand). Format: binding. To be noted: BT13 1 μM; Cat. No. 0011; average of duplicate.
In data set [4] the target is cholecystokinin receptor CK1 (CCKA) (Homo sapiens, UniProt P32238). Briefly: CEREP CK1 (CCKA) (h) (agonist radioligand). Format: binding. The settings on record: BT13 1 μM; Cat. No. 0039; average of duplicate; read-out: Percentage of inhibition/potentiation from control.
Sequence of cholecystokinin receptor CK1 (CCKA) (P32238 whole entry): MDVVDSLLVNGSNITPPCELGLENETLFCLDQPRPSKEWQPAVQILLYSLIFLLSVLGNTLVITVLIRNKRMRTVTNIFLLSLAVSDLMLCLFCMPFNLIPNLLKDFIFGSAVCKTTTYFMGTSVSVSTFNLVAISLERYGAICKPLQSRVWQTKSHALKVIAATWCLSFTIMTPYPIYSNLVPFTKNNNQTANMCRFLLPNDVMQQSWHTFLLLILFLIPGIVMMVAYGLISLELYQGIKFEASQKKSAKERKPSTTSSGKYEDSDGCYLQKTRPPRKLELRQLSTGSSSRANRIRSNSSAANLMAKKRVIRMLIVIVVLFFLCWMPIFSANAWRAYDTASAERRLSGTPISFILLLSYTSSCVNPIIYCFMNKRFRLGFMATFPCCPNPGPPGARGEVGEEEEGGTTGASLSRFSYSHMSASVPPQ
For a further data set, the target named is dopamine receptor D1 (Homo sapiens, UniProt P21728). Briefly: CEREP D1 (h) (antagonist radioligand). Format: binding. To be noted: BT13 1 μM; Cat. No. 0044; average of duplicate; read-out: Percentage of inhibition/potentiation from control.
Sequence of dopamine receptor D1 (P21728 whole entry): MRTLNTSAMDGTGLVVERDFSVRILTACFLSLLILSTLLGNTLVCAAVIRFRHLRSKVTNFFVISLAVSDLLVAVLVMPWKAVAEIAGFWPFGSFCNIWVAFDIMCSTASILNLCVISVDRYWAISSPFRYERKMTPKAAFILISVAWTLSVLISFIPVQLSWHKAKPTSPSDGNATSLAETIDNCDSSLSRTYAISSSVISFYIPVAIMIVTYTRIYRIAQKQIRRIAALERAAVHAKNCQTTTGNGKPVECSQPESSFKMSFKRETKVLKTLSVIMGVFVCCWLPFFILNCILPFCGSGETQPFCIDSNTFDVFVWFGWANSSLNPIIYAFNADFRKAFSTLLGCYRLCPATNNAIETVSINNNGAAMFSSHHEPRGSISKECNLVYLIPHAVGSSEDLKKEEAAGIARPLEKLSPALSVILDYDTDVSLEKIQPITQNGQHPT
The target of another data set is GABA receptor GABAB(1b) (Homo sapiens, UniProt Q9UBS5). Briefly: CEREP GABAB(1b) (h) (antagonist radioligand). Type of data set: binding. To be noted: read-out: Percentage of inhibition/potentiation from control.
The next data set concerns the target neurokinin receptor NK3 (Homo sapiens, UniProt P29371). Briefly: CEREP NK3 (h) (antagonist radioligand). Type of data set: binding. The settings on record: read-out: Percentage of inhibition/potentiation from control.
The subject of another data set is neurotensin receptor NT. Briefly: CEREP NT (non-selective; agonist radioligand). Format: binding. To be noted: BT13 1 μM; Cat. No. 0465; average of duplicate.
A further data set addresses opioid receptor mu (MOP) (Homo sapiens, UniProt P35372). Briefly: CEREP Mu (MOP) (h) (agonist radioligand). Type of data set: binding. The settings on record: BT13 1 μM; Cat. No. 0118; average of duplicate; read-out: Percentage of inhibition/potentiation from control.
For data set [5], the target named is T4, vasoactive intestinal peptide receptor PAC1 (PACAP) (Homo sapiens, UniProt P41586).
T4 construct: purchased CEREP (contract assay) 1518
T4 sequence (P41586 21-468): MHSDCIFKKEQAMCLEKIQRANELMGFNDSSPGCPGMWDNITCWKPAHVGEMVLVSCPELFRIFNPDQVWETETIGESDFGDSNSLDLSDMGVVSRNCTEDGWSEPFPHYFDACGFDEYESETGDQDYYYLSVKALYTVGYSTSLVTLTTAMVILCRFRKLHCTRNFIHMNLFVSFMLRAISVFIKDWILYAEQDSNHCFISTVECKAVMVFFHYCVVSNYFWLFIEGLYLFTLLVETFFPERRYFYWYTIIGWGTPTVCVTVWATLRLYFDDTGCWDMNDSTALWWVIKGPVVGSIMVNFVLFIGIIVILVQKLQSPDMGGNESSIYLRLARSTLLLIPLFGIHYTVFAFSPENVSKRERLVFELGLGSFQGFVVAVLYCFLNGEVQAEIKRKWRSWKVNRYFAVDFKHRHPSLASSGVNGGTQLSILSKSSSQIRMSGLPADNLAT
Briefly: CEREP PAC1 (PACAP) (h) (agonist radioligand). Format: binding. The settings on record: BT13 1 μM; Cat. No. 1518; average of duplicate; read-out: Percentage of inhibition/potentiation from control.

The next data set has as its system rats. Briefly: Tolerability: weight gain, toxic signs, pathological analysis of major organs. Type of data set: in vivo, rat.
The test system of another data set is RET mRNA in DRGs. Briefly: qPCR of RET mRNA in DRGs of animals with SNL. Type of data set: in vivo, rat. The settings on record: SNL rats; BT13-treated vs vehicle-treated.
The target in a further data set is dopamine transporter (Homo sapiens, UniProt Q01959). Briefly: biochemical. To be noted: read-out: Percentage of inhibition/potentiation from control.
Sequence of dopamine transporter (Q01959 whole entry): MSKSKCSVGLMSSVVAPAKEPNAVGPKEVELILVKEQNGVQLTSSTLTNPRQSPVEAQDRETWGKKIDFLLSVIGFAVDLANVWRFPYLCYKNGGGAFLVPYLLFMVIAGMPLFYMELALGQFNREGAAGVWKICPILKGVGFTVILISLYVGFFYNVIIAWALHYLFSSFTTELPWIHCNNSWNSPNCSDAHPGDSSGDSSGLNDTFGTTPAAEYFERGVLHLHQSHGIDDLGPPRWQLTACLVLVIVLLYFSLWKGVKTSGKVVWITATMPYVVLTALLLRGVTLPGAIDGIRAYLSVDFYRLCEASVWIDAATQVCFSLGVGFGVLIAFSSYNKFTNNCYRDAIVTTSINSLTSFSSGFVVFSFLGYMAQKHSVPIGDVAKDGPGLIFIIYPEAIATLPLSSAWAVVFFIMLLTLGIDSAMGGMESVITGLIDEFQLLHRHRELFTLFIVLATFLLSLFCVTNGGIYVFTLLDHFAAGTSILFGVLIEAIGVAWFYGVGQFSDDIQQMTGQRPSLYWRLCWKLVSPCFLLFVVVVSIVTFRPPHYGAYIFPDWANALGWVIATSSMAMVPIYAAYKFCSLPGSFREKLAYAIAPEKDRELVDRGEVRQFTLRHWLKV

T1 sequence (P07949 29-1114): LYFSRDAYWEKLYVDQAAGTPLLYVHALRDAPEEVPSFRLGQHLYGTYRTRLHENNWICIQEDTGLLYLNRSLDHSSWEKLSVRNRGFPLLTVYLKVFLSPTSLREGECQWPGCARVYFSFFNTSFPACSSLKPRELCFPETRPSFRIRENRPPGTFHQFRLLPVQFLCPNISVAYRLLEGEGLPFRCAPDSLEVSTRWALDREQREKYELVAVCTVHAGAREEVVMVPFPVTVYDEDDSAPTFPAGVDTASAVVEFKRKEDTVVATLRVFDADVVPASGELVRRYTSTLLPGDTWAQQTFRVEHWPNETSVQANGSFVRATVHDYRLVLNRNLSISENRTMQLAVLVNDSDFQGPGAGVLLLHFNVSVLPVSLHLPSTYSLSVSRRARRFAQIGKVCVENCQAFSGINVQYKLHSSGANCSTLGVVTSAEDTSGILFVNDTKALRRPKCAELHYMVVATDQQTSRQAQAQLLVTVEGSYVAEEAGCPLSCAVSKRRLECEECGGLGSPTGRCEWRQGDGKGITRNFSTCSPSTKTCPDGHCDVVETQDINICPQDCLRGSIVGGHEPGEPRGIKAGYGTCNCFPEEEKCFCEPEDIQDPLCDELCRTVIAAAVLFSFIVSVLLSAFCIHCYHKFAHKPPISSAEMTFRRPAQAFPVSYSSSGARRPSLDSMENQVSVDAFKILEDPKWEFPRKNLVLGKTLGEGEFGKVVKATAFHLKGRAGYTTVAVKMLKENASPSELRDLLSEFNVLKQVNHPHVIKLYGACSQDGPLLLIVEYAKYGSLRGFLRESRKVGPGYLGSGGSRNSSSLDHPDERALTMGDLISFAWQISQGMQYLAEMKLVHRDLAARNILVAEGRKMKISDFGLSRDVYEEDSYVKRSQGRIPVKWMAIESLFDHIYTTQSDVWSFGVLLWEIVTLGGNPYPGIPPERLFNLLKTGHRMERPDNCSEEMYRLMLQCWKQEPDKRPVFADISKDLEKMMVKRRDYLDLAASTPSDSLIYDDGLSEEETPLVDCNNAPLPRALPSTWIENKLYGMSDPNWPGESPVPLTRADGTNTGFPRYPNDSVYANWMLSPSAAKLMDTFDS
Sequence of opioid receptor mu (MOP) (P35372 whole entry): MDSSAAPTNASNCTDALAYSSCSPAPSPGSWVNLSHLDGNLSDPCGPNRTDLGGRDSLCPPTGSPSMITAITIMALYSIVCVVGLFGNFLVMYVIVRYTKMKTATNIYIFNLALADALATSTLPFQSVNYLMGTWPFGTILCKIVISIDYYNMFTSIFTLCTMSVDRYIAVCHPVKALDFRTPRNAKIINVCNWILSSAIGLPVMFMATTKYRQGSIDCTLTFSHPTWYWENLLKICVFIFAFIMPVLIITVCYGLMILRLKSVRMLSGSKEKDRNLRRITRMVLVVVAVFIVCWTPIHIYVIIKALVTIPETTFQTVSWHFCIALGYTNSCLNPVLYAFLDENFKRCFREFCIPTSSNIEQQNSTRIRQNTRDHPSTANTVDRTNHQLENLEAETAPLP
Sequence of neurokinin receptor NK3 (P29371 whole entry): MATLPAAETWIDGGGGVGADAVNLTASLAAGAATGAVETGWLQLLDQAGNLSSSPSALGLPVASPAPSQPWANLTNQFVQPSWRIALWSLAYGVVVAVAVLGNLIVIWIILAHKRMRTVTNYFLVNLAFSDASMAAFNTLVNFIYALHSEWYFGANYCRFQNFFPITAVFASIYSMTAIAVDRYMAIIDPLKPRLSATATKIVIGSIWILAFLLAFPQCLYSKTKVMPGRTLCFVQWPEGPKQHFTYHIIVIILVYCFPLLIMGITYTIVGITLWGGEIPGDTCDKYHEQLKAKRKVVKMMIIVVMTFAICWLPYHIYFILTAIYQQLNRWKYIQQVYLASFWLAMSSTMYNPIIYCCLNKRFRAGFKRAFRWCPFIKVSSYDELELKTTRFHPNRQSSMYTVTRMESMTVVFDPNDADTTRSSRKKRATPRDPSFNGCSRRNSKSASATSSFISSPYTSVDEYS

In the case of `CCN(CC)S(=O)(=O)c1ccc(OC)c(N2CCN(C(=O)c3ccc(F)cc3C(F)(F)F)CC2)c1` [BT13], the “efficacy, fold induction of luciferase above baseline” value on RET is recorded as 7.4 fold. For the same compound, on RET (0.1–50 μM, read-out: EC50, luciferase activation), the EC50 is 20.7 µM. Also, at TrkB, the “TrkB phosphorylation, Western blotting” value is listed as “did not produce any detectable increase”. In addition, in data set [1], the share remaining at 1 h is 108 ± 7.3%. The amount remaining at 0.5 h in [2] worked out at 2.8 ± 0.1%. Also, the half-maximal inhibitory concentration (IC50) on CYP2C9 was more than 100 µM. Besides, the “Percentage of inhibition/potentiation from control” value (in data set [3]; with neurotensin receptor NT) was −6% in each case. Also, the inhibition at 1 µM in data set [4] was 3%; on dopamine receptor D1, -17%; at GABA receptor GABAB(1b), -2%; on neurokinin receptor NK3, 0%; at opioid receptor mu (MOP), 1%; in [5], 14%. Also, the inhibition at 1 µM at dopamine transporter is 6%. Moreover, the “significant histopathological changes in major organs” value in the data set with rats (after completion of behavioral experiments) is “not detected”. Also, the “acute toxic effects, signs of pain or discomfort” value in the data set on rats (experimental animals treated with BT13) is “No acute toxic effects, signs of pain or obvious discomfort”. Besides, in the data set on rats (rat, in vivo), the “tumor formation in the tissues of rats” value is reported as “no tumor formation”. Also, in the data set with RET mRNA in DRGs, the “mRNA level of RET in DRGs” value is “no difference”.

(Values after publication PMC5478727, “A Novel Small Molecule GDNF Receptor RET Agonist, BT13, Promotes Neurite Growth from Sensory Neurons in Vitro and Attenuates Experimental Neuropathy in the Rat” (Frontiers in Pharmacology, 2017).)
